Source: paper PMC11061149, “Protein mimetic 2D FAST rescues alpha synuclein aggregation mediated early and post disease Parkinson’s phenotypes” (Nature Communications, 2024)
Where “and” joins values, the source holds several entries; their conditions need not be identical. Equal values may be shown once.

Legend:
αS aggregation = molecular target: T1, αS aggregation (Homo sapiens, UniProt P37840); test: SDS-PAGE gel shift assay of soluble and insoluble αS fractions; format: biochemical; conditions: for Total (αS, SDS-PAGE gel shift), Average: average of 3 trials
T1 construct: made in house; host or cells: E. coli BL21(DE3)
Text: The inhibition of αS aggregation by NS41 was also confirmed by TEM images, which show an abundance (Supplementary Fig. 3a) and low amount (Supplementary Fig. 3b) of αS fibers in the absence and presence of NS41, respectively. We used SDS-PAGE (Sodium dodecyl sulfate polyacrylamide gel electrophoresis) as a complementary assay to validate ThT results and to further characterize the antagonist activity of the monopyridyls against αS aggregation. We used a total of four monopyridyls with varying antagonist activity against αS aggregation for the SDS-PAGE assay. The solutions of αS (±monopyridyls) were centrifuged and the soluble and insoluble fractions were subjected to SDS-PAGE analysis as reported earlier (Fig. 2d, Supplementary Fig. 4a, see details in methods section). The band intensities of the gels in SDS-PAGE assay were quantified using ImageJ software. In the absence of ligands, ~12% of αS was found in the soluble fraction and the rest was found in the insoluble fraction (Fig. 2d, Supplementary Fig. 4a, b). In the presence of NS41 at molar ratios of 1:1 and 2:1 (NS41:αS), 48% and 73% of αS protein were found in the soluble fraction, respectively, and the rest of αS protein was found in the insoluble fraction (Fig. 2d, Supplementary Fig. 4a, b). […] The antagonist activity of the monopyridyls corroborated well from both ThT and the SDS-PAGE assays (Fig. 2a–d, Supplementary Fig. 4a, b). The higher the antagonist activity of monopyridyls against αS aggregation, the lower the ThT intensity and the higher the amount of αS remained in the soluble fraction (Fig. 2a–d, Supplementary Fig. 4a, b). […] It is important to note that NS41 contains a carboxyl (COOH) functional group side chain. […] We have also shown in that work that the foldamer binds to the N-terminus of αS because of its negatively charged COOH functional group interaction with the positively charged lysine residues of αS[24]. […] Additionally, we have also shown that the OPs with the COOH functional group are very effective inhibitors of aggregation of other amyloid proteins that contain lysine amino acid via the formation of salt bridges[30]–[34].
An αS solution (100 µM) was prepared in PBS with or without ligands and shaken ([…], 37 °C) until the fluorescence plateaued, as observed using the ThT aggregation assay, indicative of the aggregation of αS as a control (four days for most experiments unless otherwise mentioned). The solutions were separated into soluble and insoluble fractions by centrifugation at 22,000 × g for 20 min. The fractions were diluted in 2×Laemmli protein sample loading buffer (Containing 2.1% SDS, Bio-rad, Hercules, CA), boiled at 95 °C for 5 min, and ran on a 12% Mini-PROTEAN precast protein gel (Bio-rad, Hercules, CA). The gel was visualized using ChemiDoc MP Imaging System (Bio-rad, Hercules, CA) and band intensity was quantified using Image Lab image acquisition and analysis software (Bio-rad, Hercules, CA). Densitometry values were averaged from three technical replicates and reported with the error bars representing their standard deviations.

UA196 worms = test: ROS level in UA196 worms (H2DCFDA dye); format: in vivo, C. elegans
Procedure: The worm strains were bleached at the same time and the eggs were incubated on PLATE 1. On day two, the worms were divided into two batches. One half of the worms were transferred (using M9 buffer) on PLATE 2 (without ligand) and the second half of the worms were transferred to PLATE 3 (with ligand). The concentration of the ligands was 50 µM as described in the main manuscript. On day four, the ligand (10–50 μM in M9 buffer with 0.1%-0.5% DMSO, v/v) was spotted again atop the PLATE 3 at 20 °C. The worms were incubated on PLATE 2 or PLATE 3 up to day eight at 20 °C in an incubator with constant humidity. On day eight, the worms were transferred into 1.7 mL microcentrifuge tubes using M9 buffer (1 mL) and washed with M9 buffer (1 mL and three times) by centrifugation for 2 min at 700xg and 20 °C. Subsequently, a total of 100 worms/well were transferred to a Costar 96-well black plate (Corning, Kennebunk, ME) containing 100 μL solution, including M9 buffer (89 μL), worm solution (10 μL and 100 worms), and 2’,7’-dichlorofluorescein diacetate (H2DCFDA) dye (1 μL, 50 μM, stock solution = 5 mM in cell culture grade DMSO, 99% pure). As a control, 99 μL of M9 buffer and 1 μL of 5 mM H2DCFDA reaction solution was placed in the wells. Subsequently, the Costar 96-well plate was gently shaken for 30 sec at 20 °C and the fluorescence intensity was measured (λex = 485 nm and λem = 530 nm) at multiple time points (0 to 120 min) using the Infinite M200 Pro Plate Reader (Tecan, Männedorf, Switzerland)[65],[89].
For confocal imaging, the same UA196 worms (in the absence and presence of ligands) used for the quantification of ROS, were transferred from the 96-well plate into PLATE 2, air-dried into the sterile laminar flow hood. The worms ( ~ 10 worms) were transferred to a cover slide containing an anesthetic (40 mM sodium azide) and mounted on a glass microscope slide containing 2% agarose pads for the confocal imaging as described in the previous sections. This experiment consisted of three biological replicates and each biological replicate consisted of three technical replicates.

amount of αS in the insoluble fraction (αS aggregation; 100 µM αS, four days, equimolar): 14% and 11%
Total (αS, SDS-PAGE gel shift), Average (αS aggregation; NS132 0.2 eq.): 1.493
Total (αS, SDS-PAGE gel shift), Trial 1-3 (αS aggregation; NS132 0.2 eq., individual trials, Synuclein alone total ~1): 1.48 and 1.6 and 1.4
Total (αS, SDS-PAGE gel shift), Average (αS aggregation; NS132 1.0 eq.): 1.161
Total (αS, SDS-PAGE gel shift), Trial 1-3 (αS aggregation; NS132 1.0 eq., individual trials): 1.099 and 1.145 and 1.24
αS band intensity, Total, Average (αS aggregation; sheet S7B): 99.9667
αS band intensity, Total (αS aggregation; sheet S7B, individual trials): 92.4 and 101.3 and 106.2
Structure (SMILES): Cc1ccc(NC(=O)c2ccc(NC(=O)c3ccc([N+](=O)[O-])c(NCCc4c[nH]c5ccccc45)n3)c(NCC3CCCCC3)n2)c(OCC(=O)O)n1 [NS132]
distribution of αS between soluble and insoluble fraction, in words (αS aggregation; substoichiometric ratio αS:ligand 1:0.5): predominantly detected in the soluble fraction
intracellular ROS level in UA196 worms, in words (UA196 worms; 50 µM ligand on day two and four, day eight): low
ROS dye signal, Average (UA196 worms; UA196+NS132, Time 0 min): 169.8
ROS dye signal, Average (UA196 worms; UA196+NS132, Time 60 min): 210.6
ROS dye signal, Average (UA196 worms; UA196+NS132, Time 120 min): 301.6
